# Test results from patent publication US4264736A, “Antibiotic 890A10” (Merck & Co., Inc., priority 1979, dated 1981).
# Legend:
# Format in all cases: cell-based
# [1] = tested on: Vibrio percolans ATCC 8461; assay: Bioassay, agar plate disc-diffusion, 890A1 standard; settings: measured against standard of antibiotic 890A1 (defined as 250 units per HAEA300 unit)
# Protocol: An agar plate disc-diffusion method is employed using Vibrio percolans ATCC 8461 as tester organism. A purified sample of antibiotic 890A1 is used as standard. Antibiotic 890A1 is prepared according to the procedure set forth in Example 6.
# Plates containing Vibrio percolans ATCC 8461 are prepared as follows:
# A lyophilized culture of Vibrio percolans ATCC 8461 is suspended in 15 ml. of a sterilized medium containing 8 g./liter of Difco Nutrient Broth and 2 g./liter of yeast extract in distilled water "nutrient broth-yeast extract" (herein after designated NBYE). The culture is incubated overnight on a rotary shaker at 28° C. This culture is used to inoculate the surface of slants containing 1.5% agar in NBYE, and the inoculated slants are incubated overnight at 28° C., and then stored in a refrigerator. […]
# Filter paper discs of one-half inch diameter are dipped into the solution to be assayed, and are placed on the agar. […] The diameter of the zone of inhibition is measured after appropriate incubation (12-14 hours at 25° C.). […]
# Calculations of potencies proceed as follows: a slope is determined by measuring the zone diameters of a solution of antibiotic 890A10 and of a fourfold dilution (in KPB) of this solution. Two discs of each concentration are assayed on a single plate, and the average zone size at each concentration is determined. […] Potencies are then calculated by the formula: [formula] […]
# [2] = tested on: Erwinia atroseptica ATCC 4446; assay: Antibiotic spectrum profile, agar zone of inhibition; settings: Pectobacterium atrosepticum, ATCC4446, 0.015 ml of 9.5 μg/ml aqueous solution, 25° C., read-out: Inhib. Zone Diam.
# [3] = tested on: Streptococcus agalactiae MB No. 2875; assay: as above; settings: MBNO.2875, 0.015 ml of 9.5 μg/ml aqueous solution, 25° C., read-out: Inhib. Zone Diam.
# [4] = tested on: Aerobacter aerogenes MB No. 835; assay: as above; settings: Klebsiella aerogenes, MBNO.835, 0.015 ml of 9.5 μg/ml aqueous solution, 25° C., read-out: Inhib. Zone Diam.
# Protocol: (§1) The test to determine the antibiotic spectrum profiles of antibiotic 890A10 is carried out by application of a 0.015 ml. droplet of a 9.5 μg./ml. aqueous solution of the antibiotic on the surface of a 100×15 mm. petri plate containing 3 ml. of seeded nutrient agar plus 0.2% yeast extract which is incubated at 25° C.
# [5] = tested on: Serratia marcescens ATCC 890; assay: as above; settings: ATCC890, 0.015 ml of 9.5 μg/ml aqueous solution, 25° C., read-out: Inhib. Zone Diam.
# Protocol: as §1
# [6] = tested on: Bacillus sp. MB No. 633; assay: as above; settings: 0.015 ml of 9.5 μg/ml aqueous solution, 25° C., read-out: Inhib. Zone Diam.
# Protocol: as §1
# [7] = tested on: Alcaligenes faecalis ATCC 213; assay: as above; settings: ATCC213, 0.015 ml of 9.5 μg/ml aqueous solution, 25° C., read-out: Inhib. Zone Diam.
# [8] = tested on: Escherichia coli ATCC 9637; assay: as above; settings: ATCC9637, 0.015 ml of 9.5 μg/ml aqueous solution, 25° C., read-out: Inhib. Zone Diam.
structure (smiles),measurement,setting,value
CC(=O)NCCSC1=C(C(=O)O)N2C(=O)C(C(C)OS(=O)(=O)O)C2C1 (centres unmarked) [Antibiotic 890A10],bioassay units per HAEA300 unit,[1],174 bioassay units per HAEA300 unit
same,zone of inhibition at 9.5 µg/mL,[2],10 mm
same,zone of inhibition at 9.5 µg/mL,[3],29 mm
same,zone of inhibition at 9.5 µg/mL,[4],22 mm
same,zone of inhibition at 9.5 µg/mL,[5],15 mm
same,zone of inhibition at 9.5 µg/mL,[6],30 mm
same,zone of inhibition at 9.5 µg/mL,[7],24 mm
same,zone of inhibition at 9.5 µg/mL,[8],17 mm
